# In ChEMBL document CHEMBL3232912, “Anti-inflammatory diterpenoids from the roots of Euphorbia ebracteolata” (J Nat Prod, 2014):
# What was measured:
# [1] = test system: RAW264.7; assay: Antiinflammatory activity in mouse RAW264.7 cells assessed as inhibition of LPS-induced nitric oxide production after 24 hrs by Griess method; format: functional, cell-based; conditions: RAW264.7, 24 h
# [2] = test system: RAW264.7; assay: Cytotoxicity against mouse RAW264.7 cells at IC50 by MTT assay; format: cell-based
Structure (SMILES),IC50 [1],Activity [2]
C=C[C@]1(C)CC[C@@]2(CO)C3=CC(=O)O[C@@H]3C(C)(C)CC[C@@H]2C1,7.5 µM,Non-toxic
C=C[C@]1(C)CC[C@]2(C)[C@H](CC[C@H]3[C@@](C)(CO)C(=O)C=C[C@]32O)C1,19 µM,Non-toxic
C=C[C@]1(C)CC[C@@]2(C)C3=C[C@H](O)[C@H](O)C(C)(C)[C@@H]3CC[C@@H]2C1,12.5 µM,Non-toxic
COc1ccc2c(c1)c(CC(=O)O)c(C)n2C(=O)c1ccc(Cl)cc1 [INDOMETHACIN],16.7 µM,
C=C[C@]1(C)CC[C@@]2(C)C3=C[C@@H](O)[C@H](O)C(C)(C)[C@@H]3CC[C@@H]2C1,24.3 µM,Non-toxic
C=C[C@]1(C)CC[C@@]2(C)C3=CC[C@H](O)C(C)(C)[C@@H]3C[C@H](O)[C@@H]2C1,5.51 µM,Non-toxic
C=C[C@]1(C)CC[C@@]2(CO)C3=CC[C@H](O)C(C)(C)[C@@H]3CC[C@@H]2C1,5.57 µM,Non-toxic
C=C[C@]1(C)CC[C@@]2(C)C3=CC(=O)[C@H](O)[C@](C)(CO)[C@@H]3CC[C@@H]2C1,1.02 µM,Non-toxic
C=C[C@]1(C)CC[C@@]2(C)c3cc(O)c(O)c(C)c3C[C@H](O)[C@@H]2C1,2.44 µM,Non-toxic
C=C[C@]1(C)CC[C@]2(C)[C@H](CC[C@H]3[C@@](C)(CO)C(=O)C=C[C@@]32O)C1,7.32 µM,Non-toxic
C=C[C@]1(C)CC[C@@]2(C)C3=CC(=O)O[C@@H]3C(C)(C)C[C@H](O)[C@@H]2C1,6.49 µM,Non-toxic
C=C[C@]1(C)CC[C@@]2(C)C3=CC[C@H](O)[C@](C)(CO)[C@@H]3CC[C@@H]2C1,7.29 µM,Non-toxic
C=C[C@]1(C)CC[C@@]2(C)C3=CC(=O)[C@@H]4C[C@]4(C)[C@]3(O)CC[C@@H]2C1,2.76 µM,Non-toxic
C=C[C@]1(C)CC[C@@]2(C)c3cc(O)c(O)c(C)c3CC[C@@H]2C1,3.33 µM,Non-toxic
